One experiment concerns the target T1, SERCA2 (Canis lupus familiaris, UniProt O46674).
T1 construct: activity of the Ca^2+ ATPase in dog heart microsomes; from tissue; host or cells: dog heart microsomes
Briefly: Colorimetric Ca2+ ATPase (SERCA2) activation test in dog heart microsomes. The class given is biochemical. To be noted: Ca2+ ATPase activity in dog heart microsomes, phosphate release at 620 nm. An excerpt:
For the detection of the activators of SERCA2 which imitate the phosphorylation effect of PLB, a […] test may be run which determines the activity of the Ca^2+ ATPase in dog heart microsomes in the presence of test substances. The test may be carried out in 96-well microtiter plates. The enzymatic release of inorganic phosphate from ATP, which forms a blue colored complex with ammonium molybdate which can be measured at 620 nm in a spectrophotometer, may be measured.

Experiment [1] deals with Streptococcus pyogenes VR3. Briefly: Minimum inhibitory concentration. The format is cell-based. The settings on record: resistance against: Vancomycin.
The target in experiment [2] is glucose-6-phosphate translocase (G-6-P—TL) (Homo sapiens, UniProt O43826). Description: Inhibition of glucose-6-phosphate translocase. The format is biochemical.
For a further experiment, the target named is G-6-P phosphatase (Homo sapiens, UniProt P35575). Briefly: Inhibition of G-6-P phosphatase. The format is biochemical.
For experiment [3], the system named is Staphylococcus aureus SG 511.
Experiment [4] deals with Staphylococcus aureus 285.
Experiment [5] has as its system Staphylococcus aureus 503.
Experiment [6] has as its system Staphylococcus aureus FH 1982.
The subject of experiment [7] is Staphylococcus aureus 701E.
Experiment [8] has as its system Staphylococcus aureus 707E.
Experiment [9] has as its system Staphylococcus aureus 9 Tüb.
Experiment [10] has as its system Staph. epidermidis 5747IIW.
For experiment [11], the system named is Enterococcus faecium Md8B.
Experiment [12] deals with Streptococcus pyogenes 308A.
For experiment [13], the system named is Streptococcus pyogenes 77A.

In brackets after ≈: the same amount, converted by molar mass. Residues, ends and D or L forms follow the SMILES beside them. *: point of attachment. X1 = CC1CCC2C(C)(C)C(O)CCC2(C)C12Cc1c(O)cc3c(c1O2)CN(C(CC[S+](C)[O-])C(=O)*)C3=O

The term MIC denotes the smallest concentration in the dilution series that meets the test's criterion for growth inhibition. Low readings indicate a more susceptible organism, high ones a less susceptible organism.

T1 sequence (O46674 whole entry): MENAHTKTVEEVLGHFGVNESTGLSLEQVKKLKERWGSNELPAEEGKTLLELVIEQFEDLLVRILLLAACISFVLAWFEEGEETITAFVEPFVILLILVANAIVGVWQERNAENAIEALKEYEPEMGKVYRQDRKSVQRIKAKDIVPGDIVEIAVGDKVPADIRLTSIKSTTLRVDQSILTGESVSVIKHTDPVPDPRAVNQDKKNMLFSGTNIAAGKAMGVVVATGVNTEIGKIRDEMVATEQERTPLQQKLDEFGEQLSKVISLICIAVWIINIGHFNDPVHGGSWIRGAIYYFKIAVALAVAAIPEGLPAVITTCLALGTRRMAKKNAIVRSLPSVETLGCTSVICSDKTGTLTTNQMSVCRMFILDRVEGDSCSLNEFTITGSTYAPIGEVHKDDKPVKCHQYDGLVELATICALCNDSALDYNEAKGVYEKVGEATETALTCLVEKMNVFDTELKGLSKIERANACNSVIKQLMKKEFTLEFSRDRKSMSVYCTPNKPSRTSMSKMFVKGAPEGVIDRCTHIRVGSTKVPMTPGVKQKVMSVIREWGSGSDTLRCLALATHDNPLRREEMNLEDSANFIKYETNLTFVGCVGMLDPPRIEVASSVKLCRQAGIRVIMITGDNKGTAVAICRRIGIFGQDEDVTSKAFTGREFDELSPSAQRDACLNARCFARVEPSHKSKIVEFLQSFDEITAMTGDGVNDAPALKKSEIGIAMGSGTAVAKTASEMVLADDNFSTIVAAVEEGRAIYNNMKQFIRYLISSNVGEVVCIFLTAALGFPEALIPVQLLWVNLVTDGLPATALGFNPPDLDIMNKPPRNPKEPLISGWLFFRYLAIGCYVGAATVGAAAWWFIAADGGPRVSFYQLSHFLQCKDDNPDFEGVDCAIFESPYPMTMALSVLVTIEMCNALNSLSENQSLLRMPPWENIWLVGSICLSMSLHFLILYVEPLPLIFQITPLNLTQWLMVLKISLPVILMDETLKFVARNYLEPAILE
G-6-P phosphatase, sequence (P35575 whole entry): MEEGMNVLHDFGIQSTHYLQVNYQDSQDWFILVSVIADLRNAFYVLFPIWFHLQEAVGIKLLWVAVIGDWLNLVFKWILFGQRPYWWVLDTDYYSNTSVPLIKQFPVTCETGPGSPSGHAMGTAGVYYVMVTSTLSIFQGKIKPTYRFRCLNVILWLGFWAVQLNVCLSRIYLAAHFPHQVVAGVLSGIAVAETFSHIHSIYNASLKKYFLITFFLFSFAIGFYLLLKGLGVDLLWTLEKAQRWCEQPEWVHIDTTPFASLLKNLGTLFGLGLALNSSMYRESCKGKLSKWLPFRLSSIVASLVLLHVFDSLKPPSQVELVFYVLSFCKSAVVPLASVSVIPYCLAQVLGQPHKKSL
glucose-6-phosphate translocase (G-6-P—TL), sequence (O43826 whole entry, species assumed): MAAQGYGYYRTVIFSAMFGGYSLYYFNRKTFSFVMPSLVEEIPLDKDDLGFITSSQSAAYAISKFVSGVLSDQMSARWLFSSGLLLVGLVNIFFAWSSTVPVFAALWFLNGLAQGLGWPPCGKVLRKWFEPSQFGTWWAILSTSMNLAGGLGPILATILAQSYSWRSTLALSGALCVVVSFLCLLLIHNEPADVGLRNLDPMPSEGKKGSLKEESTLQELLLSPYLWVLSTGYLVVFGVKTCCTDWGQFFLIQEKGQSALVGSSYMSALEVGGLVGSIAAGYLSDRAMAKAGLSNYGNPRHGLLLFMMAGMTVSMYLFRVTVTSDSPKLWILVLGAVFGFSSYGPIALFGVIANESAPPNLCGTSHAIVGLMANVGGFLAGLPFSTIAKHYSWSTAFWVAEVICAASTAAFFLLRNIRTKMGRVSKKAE

In the case of `CC(C)CC(NC(=O)C1CCCN1C(=O)C(CCC(N)=O)NC(=O)C(Cc1c[nH]cn1)NC(=O)C1CCCN1C(=O)C(CCC(N)=O)NC(=O)C(Cc1cnc[nH]1)NC(=O)C(CC[S+](C)[O-])N1Cc2c(cc(O)c3c2OC2(C3)C(C)CCC3C(C)(C)C(O)CCC32C)C1=O)C(=O)N1CCCC1C(=O)N1CCCC1C(=O)O` (stereo not drawn) [memno peptide A] (X1-HQPHQPLPP-OH; configuration not given here), the “activates SERCA2 in concentrations from” value on SERCA2 was at least 12.5 µM. The minimal inhibitory concentration (MIC) in experiment [1] is over 64 µg/mL; in experiment [3] it was 16 µg/mL (≈ 10.2 µM); in experiment [4], 16 µg/mL (≈ 10.2 µM); in experiment [5] it was 16 µg/mL (≈ 10.2 µM); in experiment [6], 16 µg/mL (≈ 10.2 µM); in experiment [7], 16 µg/mL (≈ 10.2 µM). Also, the minimum inhibitory concentration (MIC) in experiment [8] was 16 µg/mL (≈ 10.2 µM); in experiment [9] it was 16 µg/mL (≈ 10.2 µM); against Staph. epidermidis ZH 2c, 16 µg/mL (≈ 10.2 µM); in the experiment with Staph. epidermidis 763 it was over 16 µg/mL; in experiment [10], 32 µg/mL (≈ 20.4 µM); in the experiment with Staph. epidermidis 291 it was 8 µg/mL (≈ 5.11 µM). The MIC in the experiment with Staph. epidermidis 799 was 8 µg/mL (≈ 5.11 µM); in [11] it was 8 µg/mL (≈ 5.11 µM); in the experiment on Enterococcus faecium VR1 it was over 64 µg/mL; with Enterococcus faecium VR2, over 64 µg/mL; in experiment [12] it was 8 µg/mL (≈ 5.11 µM); in [13] it was 4 µg/mL (≈ 2.55 µM). For the same compound, the “inhibitory action on glucose-6-phosphate translocase (G-6-P—TL)” value in experiment [2] is listed as “exhibits selective activities against G-6-P—TL”. Further, on G-6-P phosphatase, the “inhibition of the coenzyme G-6-P phosphatase” value was “does not inhibit”.
